We go through one compound from US8992444B2, “Devices, systems, and methods for determining isometric and isotonic activity of luminal organs” (DTherapeutics, LLC, priority 2005, dated 2015).

The subject of experiment [1] is carotid and femoral arteries. Kind of experiment: isovolumic myograph, vasoactivity of arterial segments. Set-up: species or system Wistar rats. The settings on record: concentration-dependent contraction, FIG. 2. How it is done:
Six Wistar rats weighing 300-350 g were used in the study. The animals were anesthetized with sodium pentobarbital (60 mg/kg, ip). A heating pad was used to maintain the body temperature of the animal during anesthesia. The left carotid and common femoral arteries of the rat were exposed and cannulated for blood pressure measurements. This was done to measure the in vivo difference in blood pressure between carotid and femoral arteries. Several 1 cm segments of right carotid and femoral arteries were excised and immediately stored in 4° C. physiological saline solution (PSS).
The samples were then prepared to be tested in the exemplary isovolumic myograph according to the present disclosure as shown in FIG. 1. To prepare the samples, PSS was first contained in an organ bath with a controlled heating system and warmed to 37° C. […]
Vessel 3 and pressure transducer 5 are isolated from the pressure system when vessel 3 is pressurized and the two stopcocks 6 and 7 are closed to vessel 3. […] The changes of the pressure are recorded. […]
The dosage-dependent vasoconstriction in response to phenylephrine was recorded. The dosage- and endothelium-dependent vasodilatation in response to acetylcholine was also recorded in phenylephrine pre-constriction. The dosage-dependent and endothelium-independent vasodilatation in response to sodium nitroprusside (SNP) was recorded in phenylephrine pre-constriction. […]

The subject of experiment [2] is aorta, femoral artery, and mesenteric artery. Kind of experiment: isovolumic myography, dose-dependent vasoconstriction and vasodilatation. Set-up: species or system Wistar male rats. The following applies: 10^−5 mole/l; three types of arteries at physiological pressure. The protocol: Animals and tissue preparation. […] Six aorta, six femoral arteries, and six mesenteric arteries were harvested from eighteen rats. The animals were acclimated to the testing facility for approximately one week prior to the start of the study. On the day of termination, each animal was first anesthetized with sodium pentobarbital (80 mg/kg, i.p.) and euthanized by overanesthesia with sodium pentobarbital ([…], i.p.). Either the aorta, common femoral artery, or mesenteric artery were excised quickly and placed in ice-cold physiological saline solution (PSS in mmole/L: 119 NaCl, 4.7 KCl, 25 NaHCO3, 1.17 KH2PO4, 1.17 MgSO4, 1.6 CaCl, 5.5 Dextrose, solution gassed by 95% O2/5% CO2). The artery was carefully cleaned from adjacent tissue with the aid of a stereo-dissection microscope. The branches on the artery were ligated and the artery was allowed to warm up to room temperature (22° C.) slowly in approximately 10-15 min. The artery was transferred to the chamber of isovolumic system and cannulated with connectors and secured with 8-0 suture twice to avoid any leakage. The artery was warmed up to 37° C. slowly (20-25 min) and equilibrated for 40 min at a transmural pressure of 15 mmHg before agonist and antagonist stimulation.
Isovolumic myography. […]

As to `CNC[C@H](O)c1cccc(O)c1` [phenylephrine], in experiment [1], the “concentration at which the pressure in the vessel reached a maximum” value was 3 µmol/L. Further, in experiment [2], the “increase in intraluminal pressure” value was in the range of 30 to 40 mmHg.
